PMC2838726 (Molecular cancer therapeutics, 2010)

How the values were obtained:
[1] = erlotinib 150 mg daily with sorafenib; cycle 1 days +15, 16, 22, 29
Safety, adverse events = type: in vivo, human; details: of 11 patients
[2] = test system: RAF signal transduction capacity (MEK1/2 phosphorylation) in monocytes; assay: MEK1/2 pShift assay; type: cell-based, human; details: patient 5, one sample, after 7 days of sorafenib (25.9% before sorafenib)
incurable solid tumor = assay: Tumor response; type: in vivo, human; details: per patient
[3] = Sorafenib plasma pharmacokinetics in patients, with and without erlotinib; type: in vivo, human; details: for Cmax / Tmax / AUC: human, plasma, oral
[4] = phase I trial of sorafenib plus gefitinib; cited from earlier work

Row | mean trough erlotinib concentration (Css,min) [1] | SMILES | patients needing at least 1 dose delay (Safety, adverse events) | patients with doses delivered in full throughout the study (Safety, adverse events) [patients] | patients with doses reduced (Safety, adverse events) [patients] | patients with drug discontinued (Safety, adverse events) [patients] | additional monocytes shifted to the upper gate with IL3 versus vehicle (pShift) [2] [%] | TTP (incurable solid tumor) [days] | differences in PK variables of sorafenib in the presence or absence of erlotinib ([3]; day −2 vs day +15, Wilcoxon signed rank test) | Cmax [3] [ng/mL] | Tmax [3] [h] | AUC ([3]; 150 mg) [ng·h/mL] | AUC ([3]; 400 mg) [ng·h/mL] | Cmax ([3]; 400 mg bid) [ng/mL] | Tmax ([3]; 400 mg bid) [h] | change of gefitinib Cmax and AUC in the presence of sorafenib [4]
1 | around 500 ng/ml | C#Cc1cccc(Nc2ncnc3cc(OCCOC)c(OCCOC)cc23)c1 [erlotinib] | 7 patients | 6 | 2 | 3 |  |  |  |  |  |  |  |  |  | 
2 |  | CNC(=O)c1cc(Oc2ccc(NC(=O)Nc3ccc(Cl)c(C(F)(F)F)c3)cc2)ccn1 [sorafenib] | Nine | 4 | 7 |  | 0.7 | 15 | No statistically significant differences | 8600 | 4 | 53200 | 70900 | 8600 | 4.2 | 
3 |  | COc1cc2ncnc(Nc3ccc(F)c(Cl)c3)c2cc1OCCCN1CCOCC1 [gefitinib] |  |  |  |  |  |  |  |  |  |  |  |  |  | decrease
